Test results: publication PMC8145641 (Cells, 2021)
Converted amounts (≈) assume the structure as drawn. Where two headings read alike, the source gives them in different places.

Columns and labels:
[1] = system: T. gondii; settings: values from the earlier paper; ref [25]; cited from earlier work
[2] = system: Hs27 (human foreskin fibroblast); assay: Cytotoxicity assay (MTT); assay type: cell-based; settings: 24 h treatment
[3] = system: T. gondii RH-GFP; assay: microbe, parasite or virus in culture; assay type: cell-based, Toxoplasma gondii
Protocol: Cell and parasite culture: The Hs27 (human foreskin fibroblast) (ATCC® CRL-1634™) (ATCC, Manassas, VA, USA) were culturing in DMEM (Dulbecco’s modified Eagle’s medium-ATCC® 30-2002™, ATCC) supplemented with 10% fetal bovine serum (fetal bovine serum, ATCC® 30-2020™, ATCC), 100 I.U./mL penicillin and 100 μg/mL streptomycin (penicillin-streptomycin solution ATCC® 30-2300™, ATCC). Cells were trypsinized (Trypsin-EDTA Solution ATCC® 30-2101™, ATCC) twice a week and seeded at a density of 1 × 10^6 per T25 cell culture flask and incubated in a 37 °C and 5% CO2 to achieve a confluent monolayer. The RH strain of Toxoplasma gondii (RH-GFP ATCC® 50940™, ATCC, highly virulent, haplogroup first, expression of green fluorescent protein) was maintained as tachyzoites, in parasite culture medium, which contains DMEM medium with 3% HIFBS (heat-inactivated FBS; 1 h in 56 °C). Infected tissue culture cells were incubated in a 37 °C and 5% CO2.
After 72 h of incubation, the medium was removed and then 1 × 10^5 per well of tachyzoites of the RH strain were added to the cell monolayers, in DMEM without phenol red with 3% HIFBS. One hour later, the compounds and drugs dilutions in the DMEM without phenol red medium were added to the Hs27 cells with T. gondii. Concentration of the compounds below cytotoxic concentration (<CC30), sulfadiazine 0–10,000 μM and trimethoprim, pyrimethamine and atovaquone 0–200 μM. After a subsequent 96 h of incubation, the plates were read with covered lids, and both excitation (475 nm) and emission (509 nm) from the bottom using multimode microplate reader SpectraMax® i3. The results were expressed as mean fluorescent intensity (MFI) and transformed to the percentage of viability compared to untreated cells. Finally, the inhibitory concentrations for 50% inhibition of T. gondii proliferation (IC50) were calculated. All experiments were performed in triplicate.
Graphs and statistical analyses: Statistical analyses and graphs were performed using GraphPad Prism version 9.0.0 for macOS (GraphPad Software, San Diego, CA, USA). […] Additionally, a relationship between cytotoxicity and antiparasitic activity were calculated as the ratio of the 30% cytotoxic concentration (CC30) to the 50% antiparasitic concentration (IC50) and presented as the selectivity index (SI).

[4] = system: tachyzoites of the RH-GFP strain; assay: Influence of compounds during Toxoplasma growth, Assay B (intracellular proliferation); assay type: cell-based, Toxoplasma gondii; settings: 3 h infection without compound, washed, 24 h with compound at IC50
Protocol: (§1) Influence of Compounds during Toxoplasma Growth (Assay A and B): Hs27 cells were cultured on Lab-Tek™ 4-well Chamber Slides (Nunc, Thermo Fisher Scientific, Waltham, MA, USA) (5 × 10^4 cells/500 μL per well).
Assay B—after 48 h, the medium was removed and then 5 × 10^5/500 µL/well tachyzoites of the RH-GFP strain were added to the cell monolayers, in parasite culture medium for 3 h.
(§2) In both assays as the controls, Hs27 cells were infected, but not treated. After subsequent 24 h of incubation (Assay A and B), the slides were washed with sterile PBS, fixed with formaldehyde solution (252549, Sigma-Aldrich), 3.7% in PBS for 20 min and stained with DAPI for 10 min (1 mg/mL, ThermoFisher Scientific). Microscopic analysis of 100 cells in turn, comprised of counting the infected cell ratio and tachyzoites per each parasitophorous vacuoles of infected cell, was performed using a fluorescent microscope (Axio Scope.A1, Carl Zeiss, Jena, Germany) at a magnification ×1000. For image processing ZEISS ZEN Microscope Software version 3.1 was used. Three independent experiments on triplicate chamber slides using the same conditions for both assays were performed.

[5] = system: tachyzoites of the RH-GFP strain; assay: Influence of compounds during Toxoplasma growth, Assay A (invasion); assay type: cell-based, Toxoplasma gondii; settings: compound at IC50 present 3 h during infection, washed, 24 h free medium; vs non-treated
Protocol: as §1
Assay A—after 48 h, the medium was removed and then 5 × 10^5/500 µL/well tachyzoites of the RH-GFP strain were added to the cell monolayers, in parasite culture medium with the selected compounds at IC50 concentration: 2b, 5b, 8b, 11b or 12b, for 3 h. Then, the cells were washed to remove extracellular parasites and parasite culture medium (without any compounds) was added for 24 h.
as §2

[6] = system: T. gondii RH-GFP; assay: Kinetics of T. gondii growth, Assay 1 (intracellular tachyzoites); assay type: cell-based, Toxoplasma gondii; settings: Assay 1 and Assay 2, Figure 12
Protocol: Kinetics of T. gondii growth: The effect of 12b and drugs on kinetics of T. gondii RH-GFP growth was performed as follows: 1 × 10^4 per well of Hs27 cells were seeded on black, 96-well, tissue culture-treated plates with optical bottoms in DMEM cell culture medium.
Assay 1—After 72 h of incubation, the medium was removed and then 1 × 10^5 per well of tachyzoites of the RH strain were added to the cell monolayers, in DMEM without phenol red with 3% HIFBS. One hour later, the compound 12b and drugs dilutions in the DMEM without phenol red medium were added to the Hs27 cells with T. gondii.
The plates were read with covered lids, and both excitation (475 nm) and emission (509 nm) from the bottom using multimode microplate reader SpectraMax® i3. Additionally, fluorescence measurement was performed every 24 h. The plates were incubated at 37 °C with 5% of CO2. The results were expressed as mean fluorescent intensity (MFI). The initial value for 1 × 10^5 of T. gondii RH-GFP was 37,000 MFI (log 4.57). The lower limit of detection was 1000 MFI (log 3.0). Data presented as a logarithm of mean fluorescence intensity (logMFI) on concentration and time dependent curves. All experiments were performed in triplicate.

[7] = Toxoplasma gondii, HS27, 96 h; read-out: IC50 (50% inhibition of T. gondii proliferation)
[8] = ratio of CC30 (Hs27) to IC50 (T. gondii); 1b–12b and positive controls

Compound	IC50 (50% inhibition of T. gondii proliferation) [1] [µg/mL]	CC30 (cytotoxic concentration causing 30% of cells proliferation inhibition) [2] [µg/mL]	IC50 [3, 7] [µg/mL]	SI (selectivity index, CC30/IC50) [3, 8]	further results
Cc1nc[nH]c1C(=O)NNC(=S)Nc1ccccc1F [1a]	68.83	289.60	–	–	–
Cc1nc[nH]c1-c1nnc(Nc2ccccc2F)s1 [1b]	–	157.71	26.2 (≈ 95.1 µM)	–	–
Cc1nc[nH]c1C(=O)NNC(=S)Nc1cccc(F)c1 [2a]	113.45	125.17	–	–	–
Cc1nc[nH]c1-c1nnc(Nc2cccc(F)c2)s1 [2b]	–	18.96	7.04 (≈ 25.6 µM)	2.69	number of intravacuolar tachyzoites (Assay B) [4]: significant reduction; percentage of infected cells (Assay B) [4]: still the same; size of parasitophorous vacuole (Assay B) [4]: significant reduction; number of tachyzoites per vacuole (Assay A) [5]: significant reductions; percentage of infected cells (Assay A) [5]: significant reductions
Cc1nc[nH]c1C(=O)NNC(=S)Nc1ccc(F)cc1 [3a]	110.31	266.20	–	–	–
Cc1nc[nH]c1-c1nnc(Nc2ccc(F)cc2)s1 [3b]	–	26.17	11.4 (≈ 41.5 µM)	2.29	–
Cc1nc[nH]c1C(=O)NNC(=S)Nc1ccccc1Cl [4a]	35.61	143.15	–	–	–
Cc1nc[nH]c1-c1nnc(Nc2ccccc2Cl)s1 [4b]	–	24.69	12.4 (≈ 42.4 µM)	2.00	–
Cc1nc[nH]c1C(=O)NNC(=S)Nc1cccc(Cl)c1 [5a]	24.15	96.78	–	–	–
Cc1nc[nH]c1-c1nnc(Nc2cccc(Cl)c2)s1 [5b]	–	17.88	3.65 (≈ 12.5 µM)	4.90	number of intravacuolar tachyzoites (Assay B) [4]: significant reduction; percentage of infected cells (Assay B) [4]: still the same; size of parasitophorous vacuole (Assay B) [4]: significant reduction; number of tachyzoites per vacuole (Assay A) [5]: significant reductions; percentage of infected cells (Assay A) [5]: significant reductions
Cc1nc[nH]c1C(=O)NNC(=S)Nc1ccc(Cl)cc1 [6a]	73.37	94.12	–	–	–
Cc1nc[nH]c1-c1nnc(Nc2ccc(Cl)cc2)s1 [6b]	–	45.97	8.36 (≈ 28.7 µM)	5.50	–
Cc1nc[nH]c1C(=O)NNC(=S)Nc1ccccc1Br [7a]	27.65	205.31	–	–	–
Cc1nc[nH]c1-c1nnc(Nc2ccccc2Br)s1 [7b]	–	29.71	8.77 (≈ 26.1 µM)	3.39	–
Cc1nc[nH]c1C(=O)NNC(=S)Nc1cccc(Br)c1 [8a]	15.64	96.12	–	–	–
Cc1nc[nH]c1-c1nnc(Nc2cccc(Br)c2)s1 [8b]	–	20.55	3.83 (≈ 11.4 µM)	5.37	number of intravacuolar tachyzoites (Assay B) [4]: significant reduction; percentage of infected cells (Assay B) [4]: still the same; size of parasitophorous vacuole (Assay B) [4]: significant reduction; number of tachyzoites per vacuole (Assay A) [5]: significant reductions; percentage of infected cells (Assay A) [5]: significant reductions
Cc1nc[nH]c1C(=O)NNC(=S)Nc1ccc(Br)cc1 [9a]	14.57	48.89	–	–	–
Cc1nc[nH]c1-c1nnc(Nc2ccc(Br)cc2)s1 [9b]	–	21.52	5.41 (≈ 16.1 µM)	3.98	–
Cc1nc[nH]c1C(=O)NNC(=S)Nc1ccccc1I [10a]	20.31	101.58	–	–	–
Cc1nc[nH]c1-c1nnc(Nc2ccccc2I)s1 [10b]	–	89.54	11 (≈ 28.8 µM)	8.13	–
Cc1nc[nH]c1C(=O)NNC(=S)Nc1cccc(I)c1 [11a]	10.30	85.57	–	–	–
Cc1nc[nH]c1-c1nnc(Nc2cccc(I)c2)s1 [11b]	–	36.48	4.49 (≈ 11.7 µM)	8.13	number of intravacuolar tachyzoites (Assay B) [4]: significant reduction; percentage of infected cells (Assay B) [4]: still the same; size of parasitophorous vacuole (Assay B) [4]: significant reduction; number of tachyzoites per vacuole (Assay A) [5]: significant reductions; percentage of infected cells (Assay A) [5]: significant reductions
Cc1nc[nH]c1C(=O)NNC(=S)Nc1ccc(I)cc1 [12a]	22.01	71.58	–	–	–
O=C1C(O)=C([C@H]2CC[C@H](c3ccc(Cl)cc3)CC2)C(=O)c2ccccc21 [Atovaquone (ATO), Atovaquone, reference compound]	–	54.26	0.24 (≈ 0.654 µM)	227.56	effect on the kinetics of T. gondii growth [6]: only moderately slow down the proliferation of tachyzoites
CCc1nc(N)nc(N)c1-c1ccc(Cl)cc1 [Pyrimethamine (PYR), Pyrimethamine, reference compound]	–	45.26	–	15.85	IC50 ([3]; Toxoplasma gondii, HS27, 96 h, read-out: IC50 (50% inhibition of T. gondii proliferation)): 2.86 µg/mL (≈ 11.5 µM); effect on the kinetics of T. gondii growth [6]: only moderately slow down the proliferation of tachyzoites
